According to patent publication US8637566B2, “Slow infusion of sulcardine and its salts” (HUYA Bioscience International LLC, priority 2009, dated 2014):

Experiments:
conscious beagle dogs = assay: 10 minute intravenous infusion, increasing doses: mean blood pressure, heart rate, plasma histamine (ELISA); assay type: in vivo, dog; conditions: pretreatment before i.v. sulcardine sulfate
post-MI canine = assay: Defibrillation threshold / failure risk in post-MI canine model; assay type: in vivo
anesthetized dogs = assay: Hemodynamic effects of 15 minute infusions (10, 30, 90 mg/kg) with or without diphenhydramine pretreatment; assay type: in vivo, dog; conditions: given prior to IV sulcardine sulfate
Experimental: Dogs were administered morphine (2 mg/kg subcutaneously) approximately 10-19 minutes prior to administration of anesthesia. Dogs were anesthetized with 1% α-chloralose (100 mg/kg intravenous), followed by a constant infusion of α-chloralose (35-75 mg/kg/hr, IV). Two healthy female dogs were administered escalating doses of sulcardine sulfate intravenously over 15 minutes in an acetate buffer system at dose levels of 10, 30 and 90 mg/kg with dose administrations separated by 60 minutes. Another set of two dogs received test article after pre-treatment with diphenhydramine (1 mg/kg administered 30 minutes prior to start of test article infusion). Following drug administration, dogs were evaluated for ventricular, pulmonary and peripheral hemodynamic changes using Swanz Ganz and femoral catheters as well as by monitoring of blood oxygen saturation, test article blood level, body temperature, blood biochemistry, hematology, ECG, and histamine levels.

Compound | Effect of pretreatment on histamine-mediated events of sulcardine sulfate (conscious beagle dogs) | Defibrillation failure risk (post-MI canine) | Effect of anti-histamine on cutaneous manifestations of histamine release (flushing and facial and ear edema) (anesthetized dogs) | Effect of anti-histamine on hypotension seen on dosing (anesthetized dogs)
N#Cc1cc(NC(=O)C(=O)O)c(Cl)c(NC(=O)C(=O)O)c1 [lodoxamide] | prevented the histamine-mediated events |  |  | 
O=C(NCC1CCCCN1)c1cc(OCC(F)(F)F)ccc1OCC(F)(F)F (centres unmarked) [flecanide] |  | increase defibrillation failure risk |  | 
CN(C)CCOC(c1ccccc1)c1ccccc1 [diphenhydramine, reference compound] | prevented the histamine-mediated events |  | blunting some of the cutaneous manifestations of histamine release | only partially reversed the hypotension
